Biological target: T1, CYP11A1 (Homo sapiens, UniProt P05108)
T1 construct: endogenous in cells; host or cells: NCI-H295R
T1 sequence (P05108 40-521): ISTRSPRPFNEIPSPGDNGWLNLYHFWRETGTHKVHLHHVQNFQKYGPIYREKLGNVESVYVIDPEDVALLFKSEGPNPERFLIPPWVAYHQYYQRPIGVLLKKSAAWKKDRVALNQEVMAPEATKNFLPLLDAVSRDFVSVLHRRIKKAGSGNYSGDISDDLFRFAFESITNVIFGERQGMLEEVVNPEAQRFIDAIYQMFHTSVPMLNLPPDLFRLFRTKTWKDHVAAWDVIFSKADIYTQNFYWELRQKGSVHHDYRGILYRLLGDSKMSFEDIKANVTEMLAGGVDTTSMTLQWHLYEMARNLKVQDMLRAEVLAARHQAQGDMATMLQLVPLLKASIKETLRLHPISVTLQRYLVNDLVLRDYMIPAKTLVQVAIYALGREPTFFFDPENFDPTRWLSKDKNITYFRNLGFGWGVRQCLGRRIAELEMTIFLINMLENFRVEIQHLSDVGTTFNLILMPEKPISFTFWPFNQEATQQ
Experiment: CYP11A1 inhibition: pregnenolone biosynthesis measured by ELISA in NCI-H295R cells
Assay type: cell-based
Conditions: NCI-H295R cells treated for 24 hours, 10 concentrations in duplicates, read-out: IC50 on CYP11A1 inhibition (Group)
Protocol: The ability of the test compounds to inhibit pregnenolone biosynthesis was measured by enzyme-linked immunosorbent assay (ELISA) detecting pregnenolone (Abnova Pregnenolone ELISA Kit, KA1912). […] To determine the half maximal inhibitory concentration (IC50) of the test compounds on CYP11A1 inhibition, the cells were treated for 24 hours with increasing concentrations of the test compound. The final DMSO concentration was 0.4%. Medium samples were diluted 1:6 and pregnenolone amounts determined with ELISA. Manufacturer's recommended protocols were used and pregnenolone (Sigma-Aldrich, P9129) standards were prepared in cell culture medium. Absorbance (A450) was measured with Envision plate reader (PerkinElmer). All the test compounds were studied at 10 concentrations in duplicates.

SMILES | IC50 [nM]
COc1ccc2c(c1)N(C(=O)c1cncc(-c3ccccc3)c1)CCC2 [Compound 69, (7-Methoxy-3,4-dihydroquinolin-1(2H)-yl)(5-phenylpyridin-3-yl)methanone] | 201 to 2500
O=C(c1cncc(-c2ccc(F)cc2)c1)N1CCOC2CCCCC21 (centres unmarked) [Compound 55, (5-(4-Fluorophenyl)pyridin-3-yl)(octahydro-4H-benzo[b][1,4]oxazin-4-yl)-methanone] | 51 to 200
COc1ccc(-c2cncc(C(=O)N3CCCc4ncccc43)c2)cc1 [Compound 34, (3,4-Dihydro-1,5-naphthyridin-1(2H)-yl)(5-(4-methoxyphenyl)pyridin-3-yl)-methanone] | < 50
Cn1nccc1-c1cncc(C(=O)N2CCOc3ccccc32)n1 [Compound 63, (2,3-Dihydro-4H-benzo[b][1,4]oxazin-4-yl)(6-(1-methyl-1H-pyrazol-5-yl)-pyrazin-2-yl)methanone] | 201 to 2500
O=C(c1cncc(-c2ccc3c(c2)OCC3)n1)N1CCOc2ccccc21 [Compound 13, (2,3-Dihydro-4H-benzo[b][1,4]oxazin-4-yl)(6-(2,3-dihydrobenzofuran-6-yl)pyrazin-2-yl)methanone] | < 50
CN1CCN(C(=O)c2cncc(-c3ccc(F)cc3)n2)c2ccccc21 [Compound 21, (6-(4-Fluorophenyl)pyrazin-2-yl)(4-methyl-3,4-dihydroquinoxalin-1(2H)-yl)-methanone] | < 50
O=C(Cc1cncc(-c2ccc(F)cc2)c1)N1CCOc2ccccc21 [Compound 86, 1-(2,3-Dihydro-4H-benzo[b][1,4]oxazin-4-yl)-2-(5-(4-fluorophenyl)pyridin-3-yl)ethan-1-one] | 201 to 2500
O=S(=O)(c1cncc(-c2ccc(F)cc2)c1)N1CCOc2ccccc21 [Compound 46, 4-((5-(4-Fluorophenyl)pyridin-3-yl)sulfonyl)-3,4-dihydro-2H-benzo[b][1,4]-oxazine] | 51 to 200
O=C(c1cnnc(-c2ccc(F)cc2)c1)N1CCCc2ccccc21 [Compound 30, (3,4-Dihydroquinolin-1(2H)-yl)(6-(4-fluorophenyl)pyridazin-4-yl)methanone] | < 50
O=C(c1cncc(-c2ccc(F)cc2)c1)N1CCO[C@H]2CCCC[C@@H]21 [Compound 56, (5-(4-Fluorophenyl)pyridin-3-yl)((4aS,8aS)-octahydro-4H-benzo[b][1,4]oxazin-4-yl)methanone] | 51 to 200
O=C(c1cncc(N2CCCC2)c1)N1CCOc2ccccc21 [Compound 74, (2,3-Dihydro-4H-benzo[b][1,4]oxazin-4-yl)(5-(pyrrolidin-1-yl)pyridin-3-yl)-methanone] | 201 to 2500
O=C(c1cncc(-c2ccccc2F)c1)N1CCOc2ccccc21 [Compound 41, (2,3-Dihydro-4H-benzo[b][1,4]oxazin-4-yl)(5-(2-fluorophenyl)pyridin-3-yl)-methanone] | < 50
CC1(C)C2CN(c3cncc(C(=O)N4CCOc5ccccc54)c3)CC21 (centres unmarked) [Compound 75] | 201 to 2500
O=C(c1cncc(-c2ccc(F)cc2)c1)N1CCO[C@@H]2CCCC[C@H]21 [Compound 57, (5-(4-Fluorophenyl)pyridin-3-yl)((4aR,8aR)-octahydro-4H-benzo[b][1,4]oxazin-4-yl)methanone] | 201 to 2500
O=C(c1cncc(-c2ccc(C(F)(F)F)cc2)c1)N1CCOc2ccccc21 [Compound 44, (2,3-Dihydro-4H-benzo[b][1,4]oxazin-4-yl)(5-(4-(trifluoromethyl)phenyl)pyridin-3-yl)methanone] | 51 to 200
CC1COc2ccccc2N1C(=O)c1cncc(-c2ccc(F)cc2)n1 (centres unmarked) [Compound 26, (6-(4-Fluorophenyl)pyrazin-2-yl)(3-methyl-2,3-dihydro-4H-benzo[b][1,4]oxazin-4-yl)methanone] | < 50
O=C(c1cncc(-c2ccc(F)c(O)c2)c1)N1CCOc2ccccc21 [Compound 27, (2,3-Dihydro-4H-benzo[b][1,4]oxazin-4-yl)(5-(4-fluoro-3-hydroxyphenyl)-pyridin-3-yl)methanone] | < 50
O=C(c1cncc(-c2ccc(CO)cc2)c1)N1CCOc2ccccc21 [Compound 65, (2,3-Dihydro-4H-benzo[b][1,4]oxazin-4-yl)(5-(4-(hydroxymethyl)phenyl)pyridin-3-yl)methanone] | 201 to 2500

Next, values leading:

IC50 [nM] | SMILES
51 to 200 | O=C(c1cncc(-c2ccc(F)nc2)c1)N1CCOc2ccccc21 [Compound 49, (2,3-Dihydro-4H-benzo[b][1,4]oxazin-4-yl)(6′-fluoro-[3,3′-bipyridin]-5-yl)-methanone]
51 to 200 | COc1ccc2c(c1)CCCN2C(=O)c1cncc(-c2ccccc2)c1 [Compound 53, (6-Methoxy-3,4-dihydroquinolin-1(2H)-yl)(5-phenylpyridin-3-yl)methanone]
< 50 | COc1cccc(-c2cncc(C(=O)N3CCCc4ccccc43)n2)c1 [Compound 25, (3,4-Dihydroquinolin-1(2H)-yl)(6-(3-methoxyphenyl)pyrazin-2-yl)methanone]
201 to 2500 | O=C(c1cncc(N2CCCC2)n1)N1CCOc2ccccc21 [Compound 76, (2,3-dihydro-4H-benzo[b][1,4]oxazin-4-yl)(6-(pyrrolidin-1-yl)pyrazin-2-yl)-methanone]
51 to 200 | O=C(c1cncc(-c2cccc(OC(F)(F)F)c2)n1)N1CCOc2ccccc21 [Compound 9, (2,3-Dihydro-4H-benzo[b][1,4]oxazin-4-yl)(6-(3-(trifluoromethoxy)phenyl)-pyrazin-2-yl)methanone]
201 to 2500 | Cc1ccc(-c2cncc(C(=O)N3CCOc4ccccc43)c2)cc1 [Compound 71, (2,3-Dihydro-4H-benzo[b][1,4]oxazin-4-yl)(5-(p-tolyl)pyridin-3-yl)methanone]
< 50 | O=C(c1cncc(-c2ccc(F)cc2F)c1)N1CCOc2ccccc21 [Compound 28, (5-(2,4-Difluorophenyl)pyridin-3-yl)(2,3-dihydro-4H-benzo[b][1,4]oxazin-4-yl)-methanone]
< 50 | O=C(c1cncc(-n2cccc2)c1)N1CCCc2ccccc21 [Compound 39, (5-(1H-Pyrrol-1-yl)pyridin-3-yl)(3,4-dihydroquinolin-1(2H)-yl)methanone]
< 50 | COc1cccc(-c2cncc(C(=O)N3CCCc4ccccc43)c2)c1 [Compound 38, (3,4-Dihydroquinolin-1(2H)-yl)(5-(3-methoxyphenyl)pyridin-3-yl)methanone]
51 to 200 | COc1cc(F)ccc1-c1cncc(C(=O)N2CCOc3ccccc32)c1 [Compound 45, (2,3-Dihydro-4H-benzo[b][1,4]oxazin-4-yl)(5-(4-fluoro-2-methoxyphenyl)-pyridin-3-yl)methanone]
< 50 | O=C(c1cncc(-c2ccccc2)c1)N1CCOc2ccccc21 [Compound 10, (2,3-Dihydro-4H-benzo[b][1,4]oxazin-4-yl)(5-phenylpyridin-3-yl)methanone]
< 50 | CCOC(=O)C1CN(C(=O)c2cncc(-c3ccc(F)cc3)n2)c2ccccc2O1 (centres unmarked) [Compound 35, Ethyl 4-(6-(4-fluorophenyl)pyrazine-2-carbonyl)-3,4-dihydro-2H-benzo[b][1,4]-oxazine-2-carboxylate]
51 to 200 | Fc1ccc(-c2cncc(CN3CCCc4ccccc43)c2)cc1 [Compound 89, 1-((5-(4-Fluorophenyl)pyridin-3-yl)methyl)-1,2,3,4-tetrahydroquinoline]
51 to 200 | O=C(c1cncc(-c2ccc(F)cc2)c1)N1CCCc2ncccc21 [Compound 42, (3,4-Dihydro-1,5-naphthyridin-1(2H)-yl)(5-(4-fluorophenyl)pyridin-3-yl)-methanone]
< 50 | O=C(c1cncc(C2=CCCCC2)c1)N1CCOc2ccccc21 [Compound 33, (5-(Cyclohex-1-en-1-yl)pyridin-3-yl)(2,3-dihydro-4H-benzo[b][1,4]oxazin-4-yl)methanone]
201 to 2500 | CN(C)Cc1ccc(-c2cncc(C(=O)N3CCCc4ccccc43)c2)cc1 [Compound 68, (3,4-Dihydroquinolin-1(2H)-yl)(5-(4-((dimethylamino)methyl)phenyl)pyridin-3-yl)methanone]
< 50 | O=C(c1cncc(-c2ccc3c(c2)OCC3)n1)N1CCOC2CCCCC21 (centres unmarked) [Compound 29, (6-(2,3-Dihydrobenzofuran-6-yl)pyrazin-2-yl)(octahydro-4H-benzo[b][1,4]-oxazin-4-yl)methanone]
51 to 200 | Cc1c(C(=O)N2CCOc3ccccc32)cncc1-c1ccccc1 [Compound 3, (2,3-Dihydro-4H-benzo[b][1,4]oxazin-4-yl)(4-methyl-5-phenylpyridin-3-yl)-methanone]
< 50 | O=C(c1cncc(-c2ccc(F)c(F)c2)c1)N1CCOc2ccccc21 [Compound 19, (5-(3,4-Difluorophenyl)pyridin-3-yl)(2,3-dihydro-4H-benzo[b][1,4]oxazin-4-yl)-methanone]
201 to 2500 | CN1CCN(c2cncc(C(=O)N3CCOc4ccccc43)n2)CC1 [Compound 78, (2,3-Dihydro-4H-benzo[b][1,4]oxazin-4-yl)(6-(4-methylpiperazin-1-yl)pyrazin-2-yl)methanone]

Reference: US20240124431A1, “2,3-DIHYDRO-4H-BENZO[B][1,4]OXAZIN-4-YL)(5-(PHENYL)-PYRIDIN-3-YL)METHANONE DERIVATIVES AND SIMILAR COMPOUNDS AS CYP11A1 INHIBITORS FOR THE TREATMENT OF PROSTATE CANCER” (ORION CORPORATION, priority 2020, published 2024)
